Data published in patent US20260242404A1, “INTERGLYCAN ESTERS OF SUCROSE DICARBOXYLATE AND FRUCTOFURANURONATE, PROCESS FOR THE MANUFACTURE THEREOF, AND USE THEREOF AS A HYPOGLYCEMIC SLOW SUGAR” (priority 2022, published 2026).

Assays:
HbA1c = HbA1c level calculated from average blood sugar level; type: in vivo; conditions: HbA1C 7% = 1.5 g/L average blood sugar, 1% HbA1C = 0.30 g/litre
Description: Its consumption is therefore intended for healthy subjects and also for type 2 diabetics. […] For the new natural white granulated or powdered slow sugar of this invention the following result is obtained: [formula] For traditional white commercial sugar and for comparison purposes we obtain the following result: [formula]

[1] = system: blood sugar (glucose levels in the blood); assay: Glycemic index by oral induced hyperglycemia protocol (HGPVO / OGTT); type: in vivo; conditions: analyses repeated on two subjects, traditional commercial white sugar as control (FIG. 9)

OC[C@H]1O[C@@](CO)(O[C@H]2O[C@H](CO)[C@@H](O)[C@H](O)[C@H]2O)[C@@H](O)[C@@H]1O [commercial white natural sugar, sucrose]
increases HbA1c level by (HbA1c): 9.2%
glycemic index, in words [1]: very high
